Measurements as given in US9546196B2, “Compositions and methods of treatment of cancers” (The University of Toledo, priority 2009, dated 2017).
Ends that are not written are not given here. Peptide text beside a SMILES is read from it. * marks the point of attachment. Cbz = O=C(OCc1ccccc1)*; CH2F = FC*

These compounds were tested on LNCaP cell culture (assay: not given). Settings: not given.
Type: cell-based
Description: In one non-limiting example, Peptide A-8R [SEQ ID NO: 1] can be truncated to a smaller peptide that retains the same type of biological activity profile. In certain embodiments, truncating Peptide A-8R [SEQ ID NO: 1] results in greater potency upon conversion of some of the pharmacophore functionalities to peptidomimetic groups that can, in turn, enhance key interactions by lowering the net binding energy. In one experiment, Peptide A-8R [SEQ ID NO: 1] was divided into two parts, using the central proline residue as the division point. […] A minimum number of amino acids desired for cytotoxicity was then identified. […] The following Peptide A truncated and derivative probes were synthesized and evaluated for their effect on cytotoxicity after 3- and 6-day exposures:
The following table lists cell culture data for truncated Peptide A peptides. The amino acid sequences and IC50 values in μM concentrations depict cytotoxicity after 3- and 6-day exposures (“NotA” means not active). “8R” [SEQ ID NO: 6] signifies that 8 arginines are present on the carboxy terminus to mediate membrane translocation. The data has shown that the 8R terminus [SEQ ID NO: 6] can be either as the free carboxy (—OH) or amide (—NH2) with no alteration of permeation or observed activity.
The table below lists LNCaP cell culture data for various Peptide A derivatives, displaying the observed IC50 values in μM concentrations after 3- and 6-day exposures.

Compound	cytotoxicity / activity in cells (in words)	Cytotoxicity
C[C@H](NC(=O)[C@H](CCCCN)NC(=O)[C@H](CS)NC(=O)[C@@H](N)Cc1ccccc1)C(=O)O [FA4, FCKA] (H-FCKA-OH)	diminished but yet still significant cytotoxicity	
C[C@@H](O)[C@H](N)C(=O)N[C@@H](Cc1ccccc1)C(=O)N[C@@H](CS)C(=O)O [TC3, TFC] (H-Thr-Phe-Cys-OH)	diminished but yet still significant cytotoxicity	
ACKAFRRRRRRRR-NH2 [AF5-8R]		Yes
CKAFRRRRRRRR-NH2 [Peptide CF4-8R]	lower-level activities retained	Yes
FAKAFRRRRRRRR-NH2 [Peptide FF5-C2A-8R]	dramatically reduced activity	Yes
FCAAFRRRRRRRR-NH2 [FF5-K3M-8R]		Yes
FCKAARRRRRRRR-NH2 [FA5-8R]		Yes
FCKAF [FF5-OH, FCKAF]		No
FCKAF [FF5]	inactive	
FCKAF-NH2 [FF5-NH2, FCKAF]		No
FCKAFPRRRRRRRR-NH2 [Peptide FP6-8R]		Yes
FCKAFRRRRRRRR-NH2 [Peptide FF5-8R]		Yes
FCKARRRRRRRR [Peptide FA4-8R]	lower-level activities retained	Yes
FMKAFRRRRRRRR-NH2 [Peptide FF5-C2M-8R]	significant activity was retained	Yes
KAFPFHRRRRRRRR [Peptide KH6-8R]		No
KAFPRRRRRRRR [Peptide KP4-8R]		No
PFHII [PI5, PFHII]	no activity	
PFHIIRRRRRRRR-NH2 [Peptide PI5-8R]		No
TFCKAFP [TP7, TFCKAFP]	retained cytotoxicity	
TFCKAFPRRRRRRRR-NH2 [Peptide TP7-8R]		Yes
TFCKAFRRRRRRRR-NH2 [Peptide TF6-8R]	quite comparable	Yes
TFCRRRRRRRR [Peptide TC3-8R]	lower-level activities retained	Yes

Each compound was assayed on p53 transcriptional activity (assay: p53-Luc reporter assay, sGCα1-mediated repression of p53 transcriptional activity in LNCaP cells). Settings: 100 nM of drug.
Type: cell-based
Description: FIGS. 1A-1F: Over-expression of sGCα1 inhibits p53 transcriptional activity. p53 activity was quantified by measuring luciferase activity. Bar graphs represent the average of three independent experiments plus standard deviation. All cells received the same amount of transfected expression plasmid and that pCH110 was used to control transfection efficiency.
FIGS. 2A-2F: The sGCα1-mediated repression of p53 transcriptional activity is independent of mediators of NO signaling and guanylyl cyclase activity. Androgen-dependent LNCaP cells were transfected with 0.5 μg pCH110, 0.1 μg p53-Luc reporter plasmid, and subjected to different treatments:
FIG. 2A: Cells were transfected with 0.5 μg pCH110, 0.1 μg p53-Luc reporter plasmid, and subjected to […] ODQ.
FIG. 2C: Cells were treated with different concentrations of C-PTIO.
FIG. 2D: Cells were treated with different concentrations of SNP.
FIG. 2E: Cells were treated with different concentrations of 8-Br-cGMP.
(§1) To determine whether nitric oxide (NO) signaling is involved in sGCα1-mediated repression of p53 transcriptional activity, NO interfering drugs were used.
Supporting this finding, the NO donor SNP had no effect (FIG. 2D).

Compound	p53 activity
CC1(C)N([O])C(c2ccc(C(=O)O)cc2)=[N+]([O-])C1(C)C [C-PTIO]	inhibit p53 activity

Same assay, conditions: 5 or 50 mM ODQ

Compound	effect on sGCα1-mediated repression of p53
O=c1onc2cnc3ccccc3n12 [ODQ]	no effect

Same assay, conditions: different concentrations

Compound	p53 transcriptional activity
Nc1nc2c(nc(Br)n2[C@@H]2O[C@@H]3COP(=O)(O)O[C@H]3[C@H]2O)c(=O)[nH]1 [Peptide 8-Br-cGMP, 8-Br-cGMP]	weakly enhanced

These compounds were tested against sGC (Homo sapiens, UniProt Q02153) (assay: sGC-catalyzed cGMP synthesis (data not shown)). Settings: the two ODQ concentrations.
Type: biochemical
Description: as §1

sGC, sequence (Q02108 whole entry partner): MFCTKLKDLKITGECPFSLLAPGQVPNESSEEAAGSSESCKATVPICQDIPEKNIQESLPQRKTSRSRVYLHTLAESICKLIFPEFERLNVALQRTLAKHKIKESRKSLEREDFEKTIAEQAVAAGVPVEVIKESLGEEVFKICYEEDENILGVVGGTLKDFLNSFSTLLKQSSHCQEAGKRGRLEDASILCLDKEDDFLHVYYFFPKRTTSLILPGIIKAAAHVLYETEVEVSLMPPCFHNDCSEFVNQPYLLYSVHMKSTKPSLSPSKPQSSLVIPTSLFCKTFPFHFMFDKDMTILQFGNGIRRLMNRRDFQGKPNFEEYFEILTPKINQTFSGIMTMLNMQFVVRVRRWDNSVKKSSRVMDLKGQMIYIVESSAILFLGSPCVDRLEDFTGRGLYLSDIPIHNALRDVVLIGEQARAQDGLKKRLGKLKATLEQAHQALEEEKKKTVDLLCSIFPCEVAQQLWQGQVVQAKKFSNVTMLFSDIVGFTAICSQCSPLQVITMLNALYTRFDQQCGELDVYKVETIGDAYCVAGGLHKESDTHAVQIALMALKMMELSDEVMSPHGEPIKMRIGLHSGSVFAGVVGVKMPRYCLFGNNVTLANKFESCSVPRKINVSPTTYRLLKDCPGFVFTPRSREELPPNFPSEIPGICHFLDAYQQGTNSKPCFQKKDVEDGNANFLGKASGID
sGC, sequence (Q02153 whole entry): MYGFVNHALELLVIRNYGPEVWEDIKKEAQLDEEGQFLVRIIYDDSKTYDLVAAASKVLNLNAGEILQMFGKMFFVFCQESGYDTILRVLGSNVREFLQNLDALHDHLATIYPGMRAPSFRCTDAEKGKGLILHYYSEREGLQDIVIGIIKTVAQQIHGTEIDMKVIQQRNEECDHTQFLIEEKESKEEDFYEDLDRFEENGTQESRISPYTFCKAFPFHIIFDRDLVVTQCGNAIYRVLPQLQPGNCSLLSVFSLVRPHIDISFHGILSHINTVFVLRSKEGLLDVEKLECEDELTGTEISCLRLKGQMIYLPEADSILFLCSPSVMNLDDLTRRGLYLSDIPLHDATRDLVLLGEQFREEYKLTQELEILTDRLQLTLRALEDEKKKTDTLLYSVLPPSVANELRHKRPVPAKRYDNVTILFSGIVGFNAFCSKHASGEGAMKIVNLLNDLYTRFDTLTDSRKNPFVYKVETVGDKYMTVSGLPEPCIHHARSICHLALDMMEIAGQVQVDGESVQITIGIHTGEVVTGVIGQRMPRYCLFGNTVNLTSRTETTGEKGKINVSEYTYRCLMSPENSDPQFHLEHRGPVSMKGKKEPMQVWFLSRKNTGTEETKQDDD

Compound	sGC-catalyzed cGMP synthesis
O=c1onc2cnc3ccccc3n12 [ODQ]	strongly inhibited

What follows are compounds tested on MDM2 (assay: Western blotting of MDM2 in LNCaP nuclear and cytosolic extracts). Settings: LNCaP cells.
Type: cell-based
Description: FIG. 4B: Nuclear (N) and cytosolic (C) extracts were prepared from LNCaP cells and Western blotting was used to measure protein levels of MDM2, p53, JAB1, and sGCα1. β-actin was used as loading control.
LNCaP cells were infected with an sGCα1-expressing adenovirus or control empty virus and p53 subcellular localization was measured by Western blotting following cell fractionation.

Compound	MDM2 cytoplasmic levels
CC(C)C[C@@H](C=O)NC(=O)[C@H](CC(C)C)NC(=O)[C@H](CC(C)C)NC(=O)OCc1ccccc1 [MG132] (Cbz-Leu-Leu-Leu-aldehyde)	significantly enhanced

These compounds were tested on LNCaP cells (assay: LNCaP cell viability with etoposide, MTT assay). Settings: 10 μM etoposide, two days.
Type: cell-based
Description: FIG. 7B: Over-expression of sGCα1 protects prostate cancer cells from the lethal effects of etoposide. LNCaP cells were infected with control empty adenovirus (−sGCα1; 20 MOI) or sGCα1-expressing adenovirus (+sGCα1; 2 or 20 MOI) and treated with 10 μM etoposide. After two days of incubation, cell number was quantified by MTT assay. Bar graphs represent averages of three independent experiments plus standard deviations. All activities are relative to the first condition, and this activity was set to 100%.
LNCaP cells were infected with an sGCα1-expressing adenovirus and treated with etoposide, an inducer of apoptosis. […] This finding, together, with the PCR array data showing that sGCα1 can regulate Survivin expression, is consistent with results showing that Survivin desensitizes prostate cancer cells to etoposide.

Compound	viability of LNCaP cells
COc1cc([C@@H]2c3cc4c(cc3[C@@H](O[C@@H]3O[C@@H]5CO[C@@H](C)O[C@H]5[C@H](O)[C@H]3O)[C@H]3COC(=O)[C@H]23)OCO4)cc(OC)c1O [Etoposide]	significantly reduced

What follows are compounds tested on sGCα1 (assay: Western blotting of sGCα1 expression in VCaP cells). Settings: 1 nM R1881.
Type: cell-based
Description: FIG. 11A: VCaP cells were treated with or without 1 nM R1881 and Western blotting was used to measure expression of sGCα1. β-actin was used as a loading control.

Compound	sGCα1 protein expression
C[C@]1(O)CC[C@H]2[C@@H]3CCC4=CC(=O)CCC4=C3C=C[C@@]21C [Peptide R1881, R1881]	significantly induced

What follows are compounds tested on LNCaP cells (assay: not given). Settings: increasing concentration of peptide, days; with or without 1 nM R1881.
Type: cell-based
Description: FIG. 12B: LNCaP cells were grown without androgen for 2 or 4 days in the presence of increasing concentration of Peptide A-8R [SEQ ID NO: 1] (upper left), Peptide B-8R [SEQ ID NO: 2] (upper right), Peptide C-8R [SEQ ID NO: 3] (lower left), or Peptide D-8R [SEQ ID NO: 4] (lower right). The MTT reagent was used to measure cell density.
FIG. 13A: LNCaP cells were grown with (Right) or without (Left) 1 nM androgen ([…]) for 3 or 6 days in the presence of increasing concentration of Peptide A-8R [SEQ ID NO: 1] or vehicle (70% DMSO). The MTT reagent was used to measure cell density.
FIG. 13B: LNCaP cells were grown with (Right) or without (Left) 1 nM androgen (R1881) for 3 or 6 days in the presence of increasing concentration of Peptide C-8R [SEQ ID NO: 3] or vehicle and then cell density was measured.
FIG. 14A: LNCaP cells were grown with (Right) or without (Left) 1 nM R1881 for 3 or 6 days in the presence of increasing concentration of Peptide A or vehicle and then cell density was measured.
FIG. 14B: LNCaP cells were grown with (Right) or without (Left) 1 nM R1881 for 3 or 6 days in the presence of increasing concentration of Peptide A-8R [SEQ ID NO: 1] or vehicle and then cell density was measured.
FIG. 15A: LNCaP cells were grown for 1-8 hrs in the presence of 10 μM Peptide A-8R [SEQ ID NO: 1] or vehicle and then cell density was measured.
FIG. 19C: LNCaP cells were grown with for 12 or 48 hrs in the presence of increasing concentration of Peptide A-8R [SEQ ID NO: 1] (Left) or PeptideA-8R-Biotin [SEQ ID NO: 1] (Right) and then cell density was measured.
Each peptide contained 8 arginines at the C-terminus, a sequence which is known to mediate plasma membrane translocation and cellular internalization.
To measure how rapid the cytotoxic effect of Peptide A-8R [SEQ ID NO: 1] occurs, LNCaP cells were treated with 10 μM peptide and incubated for 1-8 hrs. […] Using the same conditions, C81 cells were used to study the peptide effect on hormone-refractory prostate cancer cells.

Compound	effect on LNCaP cell growth / cytotoxicity (in words)
Ac-LRLKGQMIYLRRRRRRRR-OH [Peptide B-8R]	stopped the growth
Ac-PLHDATRDLVRRRRRRRR-OH [Peptide C-8R]	no effect
Ac-TFCKAFPFHII [Peptide A]	no effect

What follows are compounds tested on LNCaP cells (assay: Relief of Peptide A-8R cytotoxicity by pan-caspase inhibitor in LNCaP cells). Settings: 40 mM Z-VAD-FMK, 4 hrs.
Type: cell-based
Description: FIG. 18B: LNCaP cells were grown for 4 hrs in the presence of increasing concentration of Peptide A-8R [SEQ ID NO: 1] with or without […] Z-VAD-FMK and then cell density was measured.
To determine if the cytotoxicity of Peptide A-8R [SEQ ID NO: 1] is through apoptosis, LNCaP cells were monitored for Caspase 3/7 activity. […] Thus, Peptide A-8R [SEQ ID NO: 1] was able to induce Caspase 3/7 activity much faster than the well-studied apoptosis-inducing drug Etoposide. To confirm that the Peptide was killing cells via apoptosis, the inventors used the pan-caspase inhibitor Z-VAD-FMK.

Compound	effect on Vehicle-treated cells
COC(=O)C[C@H](NC(=O)[C@H](C)NC(=O)[C@@H](NC(=O)OCc1ccccc1)C(C)C)C(=O)CF [Z-VAD-FMK] (Cbz-Val-Ala-Asp(OMe)-CH2F)	no significant effect

Same assay, conditions: pretreatment with 40 mM Z-VAD-FMK, peptide up to 50 μM, 4 hrs

Compound	relief of the Peptide A-8R cytotoxic effect
COC(=O)C[C@H](NC(=O)[C@H](C)NC(=O)[C@@H](NC(=O)OCc1ccccc1)C(C)C)C(=O)CF [Z-VAD-FMK] (Cbz-Val-Ala-Asp(OMe)-CH2F)	complete relief
